Results reported in patent US10351594B2, “Process for preparing compounds having triple activities of thrombolysis, antithrombosis, and radical scavenging” (Shanghai Lumosa Therapeutics Co., Ltd., priority 2013, dated 2019).
Entries after “also recorded” stand apart in the source; their conditions may differ. Marks after values point to notes of the source that are not given here.

Key:
[1] = system: formation of thrombus (rat arteriovenous bypass); assay: Antithrombotic activity via intravenous administration, rat arteriovenous bypass cannula with thread; assay type: in vivo, male SD rats; conditions: for wet weight of thrombus: n = 10
Excerpt: A cannula was composed of 3 segments. The middle segment has a length of 80 mm and an inner diameter of 3.5 mm. […] The pre-weighed, 60 mm in length thread was placed in the middle segment of the polyethylene tube. Both ends of the wider tube sheathed the un-narrowed ends of two polyethylene tubes respectively (0.5 mm of the thread was restrained by one of the segment to fix the thread). The cannula was filled with a heparin solution in normal saline (50 IU/kg) through the tip end by using an injector and was ready for use. 200-220 g male SD rats were anesthetized with 20% urethane solution (6 mL/kg, ip). Anesthetized rats were fixed in a supine position, and the left external jugular vein was separated and penetrated with a suture at the proximal and distal ends respectively, and the distal end was ligated. An incision was carefully made on the exposed left external jugular vein, and the tip end without thread-restraining of the bypass cannula prepared as described above was inserted into the proximal end of the open incision in the left external jugular vein. A precise amount of heparin in normal saline (50 IU/kg) was injected through the tip at the other end by using an injector. Then, the injector was replaced, and precise amount of drug was injected by the same way. At this moment, without removing the injector from the ethylene tube, the right common carotid artery was separated, and the proximal end was clipped by an artery clip. The right common carotid artery was penetrated with a suture at the proximal and distal ends respectively, and the distal end was ligated. An incision was carefully cut across the right common carotid artery near the artery clip. The injector was pulled out of the polyethylene tube through the tip, and the tip of the polyethylene tube was then inserted into the proximal end of the artery incision. Both ends of the bypass cannula were fixed to the artery or vein with #4 sutures. The artery clip was then removed to allow blood to flow from the artery to the vein through the bypass cannula. A rat arteriovenous bypass thrombolysis model was thus established. The process was timed from the beginning of circulation, the thread attached with thrombus was taken out from the bypass cannula after 15 minutes and accurately weighed. The difference in the mass of the thread before and after was determined as the wet weight of the thrombus, which was statistically analyzed and used to evaluate the in vivo antithrombotic activities of the compounds. The wet weight of the thrombus was expressed as average value and standard deviation (x±SD). The drug administration method is intravenous injection. The blank control was normal saline solution, and the dose was 1 mL/kg. The positive control was aspirin, and the dose was 9 mg/kg. The dose of compounds 5Aa-p of the present invention was 0.1 nmol/kg. The method was the same as in example 3. The drug administration method is intravenous injection. The blank control was normal saline solution, and the dose was 3 mL/kg. The positive control was aspirin, and the dose was 9 mg/kg.

[2] = NO radical scavenging activity (MGD/SNAP signal peak height); assay type: biochemical; conditions: n = 6
Protocol: 7.325 mg MGD (N-methyl-glucamine dithiocarbamate, Sigma) was dissolved in 1 mL of pure water to obtain 25 mM MGD solution. […] FeSO4.7H2O was dissolved in 1 mL of pure water to obtain 12.5 mM solution. […] SNAP (S-Nitroso-acetyl penicillamine) was dissolved in 1 mL of pure water to obtain 110 μM green mother liquid, which was diluted 100 folds to obtain 1 μM SNAP solution.
The first peak height of NO signal of 5 μL MGD solution+5 μL FeSO4.7H2O solution+5 μL SNAP solution+5 μL water was measured and repeated for 6 times. This peak height defined as the known peak height of NO signal. The first peak height of NO signal of 5 μL MGD solution+5 μL FeSO4.7H2O solution+5 μL SNAP solution+5 μL solution of one of the compounds 5Aa-p was measured and repeated for 6 times. This peak height defined as the residual peak height of the NO signal scavenged by one of the compounds 5Aa-p. Scavenging ratio=(known peak height of NO signal−residual peak height of NO signal of compounds 5Aa-p)/known peak height of NO signal

[3] = system: formation of thrombus (rat arteriovenous bypass); assay: Antithrombotic activity via intravenous administration, rat arteriovenous bypass cannula with thread; assay type: in vivo, male SD rats; conditions: n = 10
[4] = rat, 5Aa-p (i.v.) 0.1 nmol/kg, 15 minutes

| Compound | EC50 [2] [µM] | wet weight of thrombus [1, 4] | wet weight of thrombus ([1]; Table 4, 5Ak 0.1 nmol/kg i.v.) | Antithrombotic activity, result in words ([1]; rat, intravenous, 5Ak 0.1 nmol/kg (dose-effect: 0.1, 0.01, 0.001 nmol/kg)) | wet weight of thrombus ([3]; Table 4, 5Ak 0.001 nmol/kg i.v.) | wet weight of thrombus ([3]; Table 4, 5Ak 0.01 nmol/kg i.v.) |
| --- | --- | --- | --- | --- | --- | --- |
| 3S-6,7-dihydroxy-1,1-dimethyl-1,2,3,4-tetrahydro-isoquinoline-3-acyl-Lys(Pro-Ala-Ala) [Compound 5Aa] | 599 ± 38 | 54.04 ± 6.43^a mg |  |  |  |  |
| C[C@H](NC(=O)[C@@H]1CCCN1)C(=O)N[C@@H](Cc1c[nH]c2ccccc12)C(=O)NCCCC[C@H](NC(=O)[C@@H]1Cc2cc(O)c(O)cc2C(C)(C)N1)C(=O)O [Compound 5Ac, 3S-6,7-dihydroxy-1,1-dimethyl-1,2,3,4-tetrahydro-isoquinoline-3-acyl-Lys(Pro-Ala-Trp)] | 463 ± 92 | 52.93 ± 3.96^a mg |  |  |  |  |
| C[C@H](NC(=O)[C@@H]1CCCN1)C(=O)N[C@@H](Cc1ccc(O)cc1)C(=O)NCCCC[C@H](NC(=O)[C@@H]1Cc2cc(O)c(O)cc2C(C)(C)N1)C(=O)O [Compound 5Ad, 3S-6,7-dihydroxy-1,1-dimethyl-1,2,3,4-tetrahydro-isoquinoline-3-acyl-Lys(Pro-Ala-Tyr)] | 453 ± 41 | 51.91 ± 4.97^a mg |  |  |  |  |
| C[C@H](NC(=O)[C@@H]1CCCN1)C(=O)N1CCC[C@H]1C(=O)NCCCC[C@H](NC(=O)[C@@H]1Cc2cc(O)c(O)cc2C(C)(C)N1)C(=O)O [Compound 5Ae, 3S-6,7-dihydroxy-1,1-dimethyl-1,2,3,4-tetrahydro-isoquinoline-3-acyl-Lys(Pro-Ala-Pro)] | 617 ± 88 | 57.20 ± 6.43^a mg |  |  |  |  |
| C[C@H](NC(=O)[C@@H]1CCCN1)C(=O)N[C@@H](CO)C(=O)NCCCC[C@H](NC(=O)[C@@H]1Cc2cc(O)c(O)cc2C(C)(C)N1)C(=O)O [Compound 5Ah, 3S-6,7-dihydroxy-1,1-dimethyl-1,2,3,4-tetrahydro-isoquinoline-3-acyl-Lys(Pro-Ala-Ser)] | 523 ± 85 | 50.67 ± 3.71^a mg |  |  |  |  |
| C[C@H](NC(=O)[C@@H]1CCCN1)C(=O)N[C@H](C(=O)NCCCC[C@H](NC(=O)[C@@H]1Cc2cc(O)c(O)cc2C(C)(C)N1)C(=O)O)[C@@H](C)O [Compound 5Aj, 3S-6,7-dihydroxy-1,1-dimethyl-1,2,3,4-tetrahydro-isoquinoline-3-acyl-Lys(Pro-Ala-Thr)] | 510 ± 75 | 50.56 ± 3.96^a mg |  |  |  |  |
| C[C@H](NC(=O)[C@@H]1CCCN1)C(=O)N[C@@H](CCCCN)C(=O)NCCCC[C@H](NC(=O)[C@@H]1Cc2cc(O)c(O)cc2C(C)(C)N1)C(=O)O [Compound 5Ak, 3S-6,7-dihydroxy-1,1-dimethyl-1,2,3,4-tetrahydro-isoquinoline-3-acyl-Lys(Pro-Ala-Lys)] | 499 ± 89 | 51.93 ± 2.74^a mg | 52.16 ± 2.02^a mg | effectively inhibit the formation of thrombus; also recorded: obvious dose-effect relationship | 61.91 ± 3.27^c mg | 57.34 ± 3.73^b mg |
| CC(C)C[C@H](NC(=O)[C@H](C)NC(=O)[C@@H]1CCCN1)C(=O)NCCCC[C@H](NC(=O)[C@@H]1Cc2cc(O)c(O)cc2C(C)(C)N1)C(=O)O [Compound 5Al, 3S-6,7-dihydroxy-1,1-dimethyl-1,2,3,4-tetrahydro-isoquinoline-3-acyl-Lys(Pro-Ala-Leu)] | 503 ± 41 | 54.20 ± 3.93^a mg |  |  |  |  |
| C[C@H](NC(=O)[C@@H]1CCCN1)C(=O)N[C@@H](CCC(N)=O)C(=O)NCCCC[C@H](NC(=O)[C@@H]1Cc2cc(O)c(O)cc2C(C)(C)N1)C(=O)O [Compound 5Am, 3S-6,7-dihydroxy-1,1-dimethyl-1,2,3,4-tetrahydro-isoquinoline-3-acyl-Lys(Pro-Ala-Gln)] | 647 ± 88 | 58.14 ± 2.30^a mg |  |  |  |  |
| C[C@H](NC(=O)[C@@H]1CCCN1)C(=O)N[C@@H](CCC(=O)O)C(=O)NCCCC[C@H](NC(=O)[C@@H]1Cc2cc(O)c(O)cc2C(C)(C)N1)C(=O)O [Compound 5Ap, 3S-6,7-dihydroxy-1,1-dimethyl-1,2,3,4-tetrahydro-isoquinoline-3-acyl-Lys(Pro-Ala-Glu)] | 477 ± 91 | 49.97 ± 6.32^a mg |  |  |  |  |

More lines, main results first:

| EC50 [2] [µM] | Compound | wet weight of thrombus [1, 4] | wet weight of thrombus ([1]; Table 4, 5Ak 0.1 nmol/kg i.v.) | Antithrombotic activity, result in words ([1]; rat, intravenous, 5Ak 0.1 nmol/kg (dose-effect: 0.1, 0.01, 0.001 nmol/kg)) | wet weight of thrombus ([3]; Table 4, 5Ak 0.001 nmol/kg i.v.) | wet weight of thrombus ([3]; Table 4, 5Ak 0.01 nmol/kg i.v.) |
| --- | --- | --- | --- | --- | --- | --- |
| 609 ± 95 | 3S-6,7-dihydroxy-1,1-dimethyl-1,2,3,4-tetrahydro-isoquinoline-3-acyl-Lys(Pro-Ala-Gly) [Compound 5Ag] | 54.28 ± 3.57^a mg |  |  |  |  |
| 532 ± 73 | 3S-6,7-dihydroxy-1,1-dimethyl-1,2,3,4-tetrahydro-isoquinoline-3-acyl-Lys(Pro-Ala-Val) [Compound 5Ab] | 54.17 ± 6.61^a mg |  |  |  |  |
| 568 ± 95 | C[C@H](NC(=O)[C@@H]1CCCN1)C(=O)N[C@@H](Cc1ccccc1)C(=O)NCCCC[C@H](NC(=O)[C@@H]1Cc2cc(O)c(O)cc2C(C)(C)N1)C(=O)O [Compound 5Af, 3S-6,7-dihydroxy-1,1-dimethyl-1,2,3,4-tetrahydro-isoquinoline-3-acyl-Lys(Pro-Ala-Phe)] | 54.01 ± 4.25^a mg |  |  |  |  |
| 527 ± 90 | CC[C@H](C)[C@H](NC(=O)[C@H](C)NC(=O)[C@@H]1CCCN1)C(=O)NCCCC[C@H](NC(=O)[C@@H]1Cc2cc(O)c(O)cc2C(C)(C)N1)C(=O)O [Compound 5Ai, 3S-6,7-dihydroxy-1,1-dimethyl-1,2,3,4-tetrahydro-isoquinoline-3-acyl-Lys(Pro-Ala-Ile)] | 56.12 ± 5.55^a mg |  |  |  |  |
| 659 ± 89 | C[C@H](NC(=O)[C@@H]1CCCN1)C(=O)N[C@@H](CC(N)=O)C(=O)NCCCC[C@H](NC(=O)[C@@H]1Cc2cc(O)c(O)cc2C(C)(C)N1)C(=O)O [Compound 5An, 3S-6,7-dihydroxy-1,1-dimethyl-1,2,3,4-tetrahydro-isoquinoline-3-acyl-Lys(Pro-Ala-Asn)] | 55.11 ± 4.76^a mg |  |  |  |  |
| 473 ± 99 | C[C@H](NC(=O)[C@@H]1CCCN1)C(=O)N[C@@H](CC(=O)O)C(=O)NCCCC[C@H](NC(=O)[C@@H]1Cc2cc(O)c(O)cc2C(C)(C)N1)C(=O)O [Compound 5Ao, 3S-6,7-dihydroxy-1,1-dimethyl-1,2,3,4-tetrahydro-isoquinoline-3-acyl-Lys(Pro-Ala-Asp)] | 48.34 ± 3.29^a mg |  |  |  |  |
